Data set [1] has as its system allogeneic islet graft. Nature of the data set: Intraportal fully-MHC mismatched allogeneic islet transplantation. In kind it is in vivo, C57BL/6J mice. The following applies: standard dosage: 11 daily injections, 1 mg rapamycin per kg. The method, then: Allogeneic Islet Transplantation—Diabetes was induced via streptozotocin (IP; 190 mg/kg) injection five days prior to transplantation and confirmed via hyperglycemia (blood glucose>400 mg/dl). Starting the day prior to transplantation, mice were injected with PBS, PS, rapamycin, or rPS (N=3 per group) at 1 mg/kg (or equivalent) in accordance with a standard dosage (11 doses, given daily) or a low dosage (6 doses, given every 3rd day). On the day of transplantation, islets were isolated from Balb/c mice via common bile duct cannulation and pancreas distension with collagenase. Islets isolated from two donors (˜200 mouse islets, ˜175 IEQ) were transplanted to C57B6/J recipients via the portal vein. Body weight and blood glucose concentration were monitored closely for 100 days post-transplantation. Intraperitoneal glucose tolerance test (IPGTT) was performed one-month post transplantation. The animals were fasted for 16 hours before being injected intraperitoneally with 2 g dextrose (200 g/L; Gibco) per kg body weight. Blood glucose concentrations were measured at 0, 15, 30, 60- and 120-minutes post-injection.

The subject of data set [2] is hair follicles at injection site. The data set can be described thus: Alopecia assessment (dorsal photos, H&E histology). In kind it is in vivo, C57BL/6J mice. An excerpt:
Alopecia Assessment—Dorsal photos were taken weekly to assess for alopecia. At 100-days post-transplantation, the mice were euthanized and skin samples were excised in the dorsal region at the subcutaneous injection site. Skin samples were placed in cassettes, fixed in 4% paraformaldehyde, and embedded in paraffin. Tissue blocks were sectioned at a thickness of […] and stained with hematoxylin and eosin (H&E). Digital images were taken on a Nikon microscope.

The test system of data set [3] is genes associated with rapamycin side effects. The data set can be described thus: Single cell RNA sequencing of spleen macrophages and CD4+ regulatory T cells. In kind it is in vivo, C57BL/6J mice. The following applies: 1 mg/kg s.c. 11 days. As to the method:
Single Cell RNA Sequencing—Healthy C57BL/6J mice were subjected to a “standard dosage regime.” Animals were injected subcutaneously for 11 days with rapamycin (in 0.2% CMC) or rPS at a dose of 1 mg/kg. Equivalent dose of 1×PBS or PS were injected as controls. After 11 days, the mice were sacrificed, and the liver and spleen were excised. The organs were processed as was done for flow cytometry. CD4+ regulatory T cells and macrophages were isolated using magnetic sorting (MojoSort; BioLegend). Briefly, cells were first incubated in a cocktail of PE anti-mouse CD169 and PE anti-mouse F4/80 antibodies (BioLegend). After washing, incubation in anti-PE nanobeads (BioLegend) occurred. Macrophages were magnetically sorted from non-macrophages. The non-macrophages cell fraction was then incubated in mouse CD4+ T cell isolation biotin-antibody cocktail (BioLegend) and sorted. The CD4+ T cell fraction was then incubated in APC anti-mouse CD25 antibody (BioLegend), followed by washing, incubation in anti-APC nanobeads (BioLegend) and sorting. RNA was isolated from separated macrophages and CD4+ regulatory T cells using R-Neasy Mini Kit with DNAse digestion (Qiagen), Samples were frozen and shipped to Admera Health where they underwent library preparation using the Lexogen 3′ mRNA-Seq Library Prep Kit FWD HT (Lexogen) and were sequenced on an Illumina sequencer (HiSeq 2500 2×150 bp). For each pair, Read 2 was discarded and only Read 1 was used for downstream data analysis. Sequencing quality was analyzed with FastQC v0.11.5^47 and reads were trimmed and filtered with Trimmomatic v0.3948. One sample from the spleen T cell PBS treatment group and one sample from the spleen T cell rapamycin treatment group were discarded due to low sequencing quality. Reads were aligned with STAR v2.6.0a 49 to the GRCm38.p6 mouse reference genome primary assembly using the GRCm38.p6 mouse reference primary comprehensive gene annotation (https://www.gencodegenes.org/mouse/). Quantification and differential expression was performed with Cuffdiff from Cufflinks v2.2.150-52 again using the GRCm38.p6 mouse reference primary comprehensive gene annotation and a 0.05 FDR. Detailed settings for each software are included in Table S1.

The test system of data set [4] is red blood cells. The following applies: in vivo; cited from earlier work.
The conditions of data set [5]: in vivo; cited from earlier work.

Structures are written as SMILES.

In the case of `CO[C@H]1C[C@@H]2CC[C@@H](C)[C@@](O)(O2)C(=O)C(=O)N2CCCC[C@H]2C(=O)O[C@H]([C@H](C)C[C@@H]2CC[C@@H](O)[C@H](OC)C2)CC(=O)[C@H](C)/C=C(\C)[C@@H](O)[C@@H](OC)C(=O)[C@H](C)C[C@H](C)/C=C/C=C/C=C/1C` [rapamycin], in data set [1], the “mice remaining normoglycemic 100 days post transplantation” value was found to be 71%. Further, in data set [2] (low dosage), the “hair follicles, histological analysis” value is “some mature follicles present” and the injection site alopecia result was “alopecia was reduced”. For the same compound, in data set [2] (mice treated with free rapamycin), the injection site alopecia result was “experienced injection site alopecia”. Moreover, the “hair follicles, histological analysis” value in data set [2] (standard dosage) is “Only immature follicles”. In data set [3] (Spleen CD4+ Regulatory T Cells), the “ACAA1 Fold Change” value was −3.833, the “CD79A Fold Change” value is recorded as −24, the “CRKL Fold Change” value worked out at 7.387 and the “MZB1 Fold Change” value was −24. The “PIK3R1 Fold Change” value in data set [3] (Spleen CD4+ Regulatory T Cells) is −12. Also, in data set [3] (Spleen Macrophages), the “IGF1 Fold Change” value is −9.108, the “MGAT1 Fold Change” value was found to be 5.0747 and the “ZDHHC3 Fold Change” value is reported as −8.143. The “partition into red blood cells” value in data set [4] is reported as 95%. Further, the “patients impacted by alopecia” value in data set [5] is reported as “approximately 10%”.

These data come from patent publication US20230263729A1, “POLY(ETHYLENE GLYCOL)-BLOCK-POLY(PROPYLENE SULFIDE) NANOCARRIER PLATFORM FOR ENHANCED EFFICACY OF IMMUNOSUPPRESSIVE AGENTS” (Northwestern University, priority 2019, published 2023).
